Results: paper doi:10.1101/2023.09.30.560269v1 (biorxiv, 2023)

How the values were obtained:
[1] = biological target: T1, hLIFR (recombinant human LIFR, His Tag) (Homo sapiens, UniProt P42702); assay: AlphaScreen, inhibition of LIFR/LIF binding
T1 sequence (P42702 45-833 limits assumed): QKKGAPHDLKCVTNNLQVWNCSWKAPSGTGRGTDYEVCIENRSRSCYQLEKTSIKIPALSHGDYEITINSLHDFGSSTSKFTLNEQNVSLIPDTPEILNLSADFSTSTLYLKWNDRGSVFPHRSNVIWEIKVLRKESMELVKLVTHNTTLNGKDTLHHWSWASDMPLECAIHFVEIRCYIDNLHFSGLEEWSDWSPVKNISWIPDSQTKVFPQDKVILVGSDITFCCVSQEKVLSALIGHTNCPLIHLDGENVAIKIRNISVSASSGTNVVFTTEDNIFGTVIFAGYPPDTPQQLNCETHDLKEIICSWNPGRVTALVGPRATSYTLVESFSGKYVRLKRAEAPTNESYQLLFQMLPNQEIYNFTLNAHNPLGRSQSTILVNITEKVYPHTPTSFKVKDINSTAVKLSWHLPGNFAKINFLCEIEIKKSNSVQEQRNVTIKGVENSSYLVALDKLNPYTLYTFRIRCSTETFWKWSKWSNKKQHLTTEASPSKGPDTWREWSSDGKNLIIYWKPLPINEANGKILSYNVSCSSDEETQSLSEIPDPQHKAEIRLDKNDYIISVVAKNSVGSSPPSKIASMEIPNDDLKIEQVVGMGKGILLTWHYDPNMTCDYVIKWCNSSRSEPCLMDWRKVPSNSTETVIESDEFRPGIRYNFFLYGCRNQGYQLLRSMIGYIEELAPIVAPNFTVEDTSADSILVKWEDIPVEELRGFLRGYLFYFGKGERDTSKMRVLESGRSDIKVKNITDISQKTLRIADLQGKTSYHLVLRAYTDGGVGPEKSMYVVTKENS

[2] = biological target: T2, hLIFR and CD130 (IL6ST); LIFR/gp130 (Homo sapiens, UniProt P42702); assay: STAT3; type: cell-based
T2 sequence (P42702 45-1097): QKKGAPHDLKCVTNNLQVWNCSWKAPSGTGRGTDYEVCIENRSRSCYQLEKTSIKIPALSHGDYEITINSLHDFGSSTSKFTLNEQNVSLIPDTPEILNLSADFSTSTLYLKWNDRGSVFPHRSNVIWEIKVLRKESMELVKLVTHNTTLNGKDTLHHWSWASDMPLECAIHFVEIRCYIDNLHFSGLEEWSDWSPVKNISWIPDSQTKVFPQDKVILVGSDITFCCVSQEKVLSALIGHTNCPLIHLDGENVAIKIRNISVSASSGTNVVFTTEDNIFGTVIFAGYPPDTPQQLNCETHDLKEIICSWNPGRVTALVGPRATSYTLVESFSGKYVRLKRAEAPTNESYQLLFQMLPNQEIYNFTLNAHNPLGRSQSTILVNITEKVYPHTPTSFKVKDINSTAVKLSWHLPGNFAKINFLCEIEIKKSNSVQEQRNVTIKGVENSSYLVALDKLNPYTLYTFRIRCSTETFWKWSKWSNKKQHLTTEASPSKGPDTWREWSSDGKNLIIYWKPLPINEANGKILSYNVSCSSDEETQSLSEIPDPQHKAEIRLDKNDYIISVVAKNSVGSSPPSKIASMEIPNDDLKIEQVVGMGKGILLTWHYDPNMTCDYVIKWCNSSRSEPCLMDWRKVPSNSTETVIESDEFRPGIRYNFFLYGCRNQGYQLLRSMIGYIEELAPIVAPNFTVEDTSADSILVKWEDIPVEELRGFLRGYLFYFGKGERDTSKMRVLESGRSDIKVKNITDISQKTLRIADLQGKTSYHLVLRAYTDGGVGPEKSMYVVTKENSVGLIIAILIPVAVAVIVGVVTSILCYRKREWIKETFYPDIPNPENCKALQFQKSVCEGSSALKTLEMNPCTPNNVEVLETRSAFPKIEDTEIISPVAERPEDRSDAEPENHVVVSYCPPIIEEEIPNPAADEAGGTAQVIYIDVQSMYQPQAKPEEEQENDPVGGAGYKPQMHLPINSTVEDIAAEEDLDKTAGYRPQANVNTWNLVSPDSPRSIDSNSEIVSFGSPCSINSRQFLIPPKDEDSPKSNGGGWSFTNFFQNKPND

## C[C@H](CCC(=O)O)[C@H]1CC[C@H]2[C@@H]3CC[C@@H]4C[C@H](O)CC[C@]4(C)[C@H]3C[C@H](O)[C@]12C [DCA]
[1]
  IC50: 18.4 µM
[2]
  IC50: ~6.2 µM

## C[C@H](CCC(=O)NCC(=O)O)[C@H]1CC[C@H]2[C@@H]3[C@H](O)C[C@@H]4C[C@H](O)CC[C@]4(C)[C@H]3CC[C@]12C [GCDCA]
[1]
  IC50: 50.6 µM

## C[C@H](CCC(=O)NCC(=O)O)[C@H]1CC[C@H]2[C@@H]3CC[C@@H]4C[C@H](O)CC[C@]4(C)[C@H]3CC[C@]12C [GLCA]
[1]
  IC50: 23 µM
[2]
  IC50: ~9.8 µM

## C[C@H](CCC(=O)NCCS(=O)(=O)O)[C@H]1CC[C@H]2[C@@H]3[C@H](O)C[C@@H]4C[C@H](O)CC[C@]4(C)[C@H]3CC[C@]12C [TCDCA]
[1]
  IC50: 38 µM
